Literature values in US7976869B2, “Fenofibrate tablets” (Laboratoires Fournier S.A., priority 2001, dated 2011).
Read-outs that look alike come from different tables or passages of the source.

Conditions: conventional gelatin capsule form

CC(C)OC(=O)C(C)(C)Oc1ccc(C(=O)c2ccc(Cl)cc2)cc1 [Fenofibrate]
bioavailability (after a meal): 89%
bioavailability (on an empty stomach): 26%
